Reference: US20220332799A1, “HERV INHIBITORS FOR USE IN TREATING TAUOPATHIES” (Deutsches Zentrum Für Neurodegenerative Erkrankungen E.V. …, priority 2019, published 2022)
Entries after “also recorded” stand apart in the source; their conditions may differ.

What was measured:
MuERV env and gag mRNA = test: qRT-PCR of MuERV env and gag transcripts in donor clone s2E; type: cell-based, mouse; conditions: s2E P1 donors, Aza 200 nM or Dec 100 nM, then 5 days without drug, vs DMSO
Procedure: To inhibit methyltransferases, s2E P1 donor cells were treated for three days with methyltransferase inhibitors 5-Azacytidine (Aza) 200 nM, Decitabine (Dec) 100 nM or DMSO as solvent control. Subsequently, the cells were cultured in the absence of the drugs for 5 days. Pre-treated donor cells were subsequently cocultured with recipient cells as described above to monitor aggregate induction efficiency in recipient N2a NM-GFP^sol cells. Cell lysates of donor cells were also analyzed for MuERV Env and Gag expression levels by western blot. To increase DNA methylation, the s2E donor clone (P21) was treated with methyl group donors L-methionine (L-M) 80 mM, Betaine (B) 80 mM, Choline chloride (CC) 20 mM or medium control for 6 days. MuERV Env and Gag protein levels were analyzed by western blot. Subsequently, cells were cocultured with recipient cells for 16 h. The percentage of aggregate containing recipient cells was compared to the percentage of aggregate bearing recipients cocultured with solvent-treated donors. […]
Total RNA from cell pellets or brain samples was isolated using the RNeasy Mini Kit or RNeasy Lipid Tissue Mini Kit (Qiagen). RNA concentration and quality were determined using the Agilent 2100 Bioanalyzer System. For a 20 μl reaction, 1 μg RNAs were reversely transcribed to cDNA using the iScript™ cDNA Synthesis Kit (Bio-Rad). For a 20 μl qRT-PCR reaction, 2 μl of synthesized cDNA was used as template. For qRT-PCR of murine env AA037244.2 and gag AID54952, custom designed TaqMan probes were used (Thermo Fisher Scientific). Pre-designed TaqMan probes by the company for murine pan-env, xpr1, mcat-1 and gapdh as housekeeping control and TaqMan™ Gene Expression Master Mix (Thermo Fisher Scientific) were used. qRT-PCR using TaqMan probes was performed as described in the manufacturer's instruction. For qRT-PCR analyses of HERV family members, primers were designed using the corresponding cDNA sequences (cf. SEQ ID NOs. 73-92). PowerUP SYBR™ Green Master Mix (Thermo Fisher Scientific) was mixed with different cDNAs and corresponding primers as indicated in the instruction. The fast cycling mode was used for all primers.

[1] = test system: HERV-W Env (Syncytin-1) mRNA; test: Quantitative real-time PCR of Syncytin-1 in MCF-7 cells; type: cell-based, human; conditions: MCF-7 Tau-GFPAD cells, 2 μM for 4 d; vs DMSO
Procedure: (§1) FIG. 14: Human endogenous retroviruses contribute to the spreading of protein aggregates. • a. Experimental workflow. A human breast cancer cell line MCF-7 (4) was engineered to stably express Tau-GFP and induced to propagate Tau aggregates by exposure to Alzheimer's disease brain homogenate (AD). A single cell clone was subsequently isolated and used in the experiment (MCF-7 Tau-GFPAD). This donor clone was treated with 2 μM 5-Aza-2-deoxycytidine (Aza) for 4 d to de-repress HERV expression. Pretreated donor cells were cocultured with HEK-Tau-FRsol cells. • b. […] Statistics: Unpaired Student's t-test (n=3). • c. Quantitative analysis of recipient cells with induced Tau-FR aggregates following coculture with DMSO-treated or Aza-treated donor cells. Statistics: Unpaired Student's t-test (n=6). • d. […] Recipients were subsequently cocultured with transduced donors that had been passaged at least 5 times post transduction. • e. shRNA-mediated downregulation of Syncytin-1 mRNA in MCF-7 Tau-GFPAD cells assessed by quantitative real-time PCR. […] Quantitative analysis of recipient cells with induced Tau-FR aggregates following coculture with donors with decreased HERV-W Syncytin-1 expression. […]
Total RNAs from cell pellets were isolated using the RNeasy Mini Kit or RNeasy Lipid Tissue Mini Kit (Qiagen). RNA concentration and quality were determined with Agilent 2100 Bioanalyzer System. […]

HEK Tau-FRsol cells = test: Tau-FR aggregate induction by coculture with MCF-7 Tau-GFPAD donor cells; type: cell-based, human; conditions: donors pretreated with 2 μM for 4 d; coculture 3 d without drug; vs DMSO
Procedure: as §1, with “cells.” for “cells. Statistics: Unpaired Student's t-test (n=6). • d.”
To inhibit methyltransferase, MCF-7 Tau-GFPAD cells were treated with 2 μM Aza or DMSO for 4 d. […] Afterwards, the total numbers of viable cells and the viability upon drug treatments were determined using the Vi-VELLTMXR Cell Viability Analyzer (Beckman Coulter). […]

Question: `Nc1ncn([C@H]2C[C@H](O)[C@@H](CO)O2)c(=O)n1` [Decitabine, 5-aza-2′-deoxycytidine] was tested. Which “expression of total env and gag mRNA” value (MuERV env and gag mRNA) did it give?
Answer: increased expression of total env and gag mRNA

Question: What about the “expression of total env and gag mRNA” value (MuERV env and gag mRNA; listed as 5-aza-2′-deoxycytidine) of the same molecule?
Answer: Increased expression of MuERV env (f), gag (h) and pan-env (g) transcripts

Question: And the “Syncytin-1 mRNA levels” value [1]?
Answer: enhanced Syncytin-1 mRNA levels; also recorded: increased HERV-W Env (Syncytin-1) expression

Question: And the “recipient cells with induced Tau-FR aggregates in cocultures” value (HEK Tau-FRsol cells)?
Answer: increased recipient cells with aggregates in cocultures
